From paper PMC7402526, “An in vitro quantitative systems pharmacology approach for deconvolving mechanisms of drug-induced, multilineage cytopenias” (PLoS Computational Biology, 2020)

Legend:
monocytes (monocyte-lin) = assay: MLTA, Mono: concentration-response and QSP model fit; format: cell-based, human; settings: Homo sapiens, Monocyte, 144 h
Outline: (§1)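 Freeze-thawed primary human bone marrow CD34+ cells were grown in SFEM II with a multi-lineage cytokine cocktail, drug added day 0, six days at 37°C. Lineage counts came from 17-parameter flow with TruCount beads, vehicle-normalized per donor, then fitted by an Emax-based QSP model.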

[1] = test system: hematopoietic stem cells (HSCs); assay: Multi-lineage toxicity assay (MLTA), HSCs: concentration-response and QSP model fit; format: cell-based, human
Outline: (§2)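 Drug was added at time 0 to thawed human bone marrow CD34+ cells in SFEM II plus a cytokine cocktail. After 6 days at 37°C, subsets were counted by surface-marker flow with TruCount beads. Vehicle-normalized, donor-pooled data then fed an Emax model separating anti-proliferative from cell-killing effects.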

[2] = test system: human bone marrow-derived CD34+ cells differentiated into multiple hematopoietic lineages; assay: MLTA, overall effects across hematopoietic lineages; format: cell-based; settings: QSP model fit; EmaxT > 1.0 = cell-killing
Protocol: A custom optimized cytokine cocktail was developed using commercially available cytokines (Peprotech, New Jersey) to facilitate simultaneous multi-lineage differentiation and self-renewal of freeze-thawed primary human bone marrow-derived CD34+ cells in SFEM II media (cells and media from StemCell Technologies, Vancouver). Cultures were carried out in ultra-low attachment 96-well plates (Corning, New York) with test article added on day 0 and cultured at 37°C, 85% relative humidity, and 5% CO2 for six days before interrogating drug impact via 17-parameter flow cytometry.
The flow cytometry panel used to define hematopoietic subsets was composed of CD34-PECy7, CD90-PECY5, CD38-AF488, CD371-PE, CD45Ra-BV421, CD14-BV605, CD42b-AF647, CD10-PEDazzle594, CD235a-PerCPCy5.5 (BioLegend, California), CD15-BUV395, CD41a-APCH7, CD71-BV786 (BD Biosciences, California), and DAPI for dead cell exclusion (ThermoFisher, California). In short, Day 6 cells were harvested, FcR-blocked (FcR binding inhibitor, ThermoFisher), surface-stained, then analyzed in a buffer containing TruCount Control Beads using a BD LSR Fortessa SORP fitted with a high-throughput sampler (BD Biosciences, California). Data was analyzed in Diva 6.0.2 and exported to CSV where after all cell data was transformed to cell per mL then normalized on a per-donor basis to untreated control wells to determine drug impact.
Donor material was collected and cultured as described above. The number of replicate donor samples per drug ranged from 2–7 and varied per drug (S1 Table). Drug treatment was added at time 0 and cells were maintained in culture for 6 days. Concentrations tested for each drug compound are contained in S1 Table. Concentrations were selected to span a range that is clinically useful. Following treatment, cell populations were measured using flow cytometry. We extracted cell counts from flow cytometry data, normalized to bead counts, and corrected for well volume.
Each well was normalized to the average of six vehicle control wells. For drugs that were tested across multiple runs of the assay, vehicle-normalized donor data were pooled, and we used the average of these pooled data for further modeling. Normalized data used as model inputs are included in S1 Table.
We implemented drug effects using an Emax model for the drug’s effect on each cell type. The 13 maximum effect parameters (EmaxT,C) are unitless and can vary between 0 and 2 and where a subscript, C, represents one of the previously described 13 cell types. We adapted a traditional Emax model using the equations below. We interpreted EmaxT values less than or equal to one as anti-proliferative, and EmaxT values greater than one as indicating a cell-killing mechanism in addition to anti-proliferation. The relationships for these effects are included in the model using the following equations. Eq 2 describes the drug anti-proliferative effect in the net proliferation rate for a given cell type. Eq 3 describes the cell-killing EmaxCK effect.

[3] = test system: neutrophils (neutrophil-lin); assay: MLTA, Neut: concentration-response and QSP model fit; format: cell-based, human; settings: Homo sapiens, Neutrophil, 144 h
Outline: as §2

[4] = test system: total dead cells (totalDeadCells); assay: MLTA, total dead cells concentration-response; format: cell-based; settings: Homo sapiens, 144 h, 6 days, normalized to vehicle control, read-out: total_dead normalized cell count
Outline: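 Freeze-thawed primary human bone marrow CD34+ cells in SFEM II with cytokine cocktail, drug added day 0, 6 days at 37°C, 5% CO2. Live/dead counts by 17-parameter flow cytometry with DAPI exclusion, bead-normalized, volume-corrected to cells/mL. Normalized per donor to mean of six vehicle wells; 2–7 donors pooled.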

[5] = test system: late erythroid cells (Eryth II); assay: MLTA, ErythII: concentration-response and QSP model fit; format: cell-based, human; settings: Homo sapiens, 144 h
Outline: as §2

[6] = test system: monocyte progenitors (monocyte prog); assay: MLTA, MonoP: concentration-response and QSP model fit; format: cell-based, human
Outline: as §1

granulocytes (Gran-lin) = assay: MLTA, Gran: concentration-response and QSP model fit; format: cell-based, human
Outline: as §1

[7] = QSP model fit of 6-day MLTA data
[8] = cell-killing component, max(0, EmaxT-1)

EC50 (monocytes (monocyte-lin); [7]): 9.03 nM
EC50 [3, 7]: 13.7 nM
EC50 ([5]; QSP model fit of 6-day MLTA data, read-out: EC50ErythII): 6.3 nM
EC50 ([6]; Homo sapiens, Monocyte, 144 h, QSP model fit of 6-day MLTA data, read-out: EC50MonoP): 7.88 nM
EC50 (granulocytes (Gran-lin); Homo sapiens, 144 h, QSP model fit of 6-day MLTA data): 7.91 nM
Structure (SMILES): CC(=O)O[C@@]12CO[C@@H]1C[C@H](O)[C@@]1(C)C(=O)[C@H](O)C3=C(C)[C@@H](OC(=O)[C@H](O)[C@@H](NC(=O)OC(C)(C)C)c4ccccc4)C[C@@](O)([C@@H](OC(=O)c4ccccc4)[C@H]21)C3(C)C [docetaxel]
activity at 0.0002 µM (monocytes (monocyte-lin); dose 0.2 nM, 6 days, normalized to vehicle control, read-out: Mon normalized cell count): 103%
activity at 0.001 µM (monocytes (monocyte-lin); dose 1 nM, 6 days, normalized to vehicle control, read-out: Mon normalized cell count): 106%
activity at 0.005 µM (monocytes (monocyte-lin); dose 5 nM, 6 days, normalized to vehicle control, read-out: Mon normalized cell count): 2.6%
activity at 0.025 µM (monocytes (monocyte-lin); dose 25 nM, 6 days, normalized to vehicle control, read-out: Mon normalized cell count): 1.23%
activity at 0.1 µM (monocytes (monocyte-lin); dose 100 nM, 6 days, normalized to vehicle control, read-out: Mon normalized cell count): 1.06%
activity at 0.5 µM (monocytes (monocyte-lin); dose 500 nM, 6 days, normalized to vehicle control, read-out: Mon normalized cell count): 2.03%
activity at 2.5 µM (monocytes (monocyte-lin); dose 2500 nM, 6 days, normalized to vehicle control, read-out: Mon normalized cell count): 1.39%
Emax (monocytes (monocyte-lin); parameter from QSP model fitting, read-out: Emax_drug_Mono): 19.8%
EC50 ([1]; Homo sapiens, Hematopoietic stem cell, 144 h, QSP model fit of 6-day MLTA data): 33.7 nM
activity at 0.0002 µM ([1]; Homo sapiens, Hematopoietic stem cell, 144 h, dose 0.2 nM, 6 days, normalized to vehicle control, read-out: HSCs normalized cell count): 97.9%
activity at 0.001 µM ([1]; Homo sapiens, Hematopoietic stem cell, 144 h, dose 1 nM, 6 days, normalized to vehicle control, read-out: HSCs normalized cell count): 104%
activity at 0.005 µM ([1]; Homo sapiens, Hematopoietic stem cell, 144 h, dose 5 nM, 6 days, normalized to vehicle control, read-out: HSCs normalized cell count): 64.6%
activity at 0.025 µM ([1]; Homo sapiens, Hematopoietic stem cell, 144 h, dose 25 nM, 6 days, normalized to vehicle control, read-out: HSCs normalized cell count): 4%
activity at 0.1 µM ([1]; Homo sapiens, Hematopoietic stem cell, 144 h, dose 100 nM, 6 days, normalized to vehicle control, read-out: HSCs normalized cell count): 0.534%
activity at 0.5 µM ([1]; Homo sapiens, Hematopoietic stem cell, 144 h, dose 500 nM, 6 days, normalized to vehicle control, read-out: HSCs normalized cell count): 2.32%
activity at 2.5 µM ([1]; Homo sapiens, Hematopoietic stem cell, 144 h, dose 2500 nM, 6 days, normalized to vehicle control, read-out: HSCs normalized cell count): 0.559%
Emax ([1]; Homo sapiens, Hematopoietic stem cell, 144 h, parameter from QSP model fitting, read-out: Emax_drug_HSC): 130%
EmaxCK,HSC [1, 8]: 0.3 day⁻¹
EmaxT effects across cell types (overall statement) [2]: > 1.0
activity at 0.0002 µM ([3]; dose 0.2 nM, 6 days, normalized to vehicle control, read-out: Neut normalized cell count): 90.8%
activity at 0.001 µM ([3]; dose 1 nM, 6 days, normalized to vehicle control, read-out: Neut normalized cell count): 99.6%
activity at 0.005 µM ([3]; dose 5 nM, 6 days, normalized to vehicle control, read-out: Neut normalized cell count): 0.23%
activity at 0.025 µM ([3]; dose 25 nM, 6 days, normalized to vehicle control, read-out: Neut normalized cell count): 0.177%
activity at 0.1 µM ([3]; dose 100 nM, 6 days, normalized to vehicle control, read-out: Neut normalized cell count): 0.139%
activity at 0.5 µM ([3]; dose 500 nM, 6 days, normalized to vehicle control, read-out: Neut normalized cell count): 0.0727%
activity at 2.5 µM ([3]; dose 2500 nM, 6 days, normalized to vehicle control, read-out: Neut normalized cell count): 0%
Emax ([3]; parameter from QSP model fitting, read-out: Emax_drug_Neut): 23.2%
activity at 0.0002 µM ([4]; dose 0.2 nM): 104%
activity at 0.001 µM ([4]; dose 1 nM): 107%
activity at 0.005 µM ([4]; dose 5 nM): 113%
activity at 0.025 µM ([4]; dose 25 nM): 45.7%
activity at 0.1 µM ([4]; dose 100 nM): 46.1%
activity at 0.5 µM ([4]; dose 500 nM): 41.6%
activity at 2.5 µM ([4]; dose 2500 nM): 48.4%
activity at 0.0002 µM ([5]; dose 0.2 nM, 6 days, normalized to vehicle control, read-out: ErythII normalized cell count): 91.6%
activity at 0.001 µM ([5]; dose 1 nM, 6 days, normalized to vehicle control, read-out: ErythII normalized cell count): 105%
activity at 0.005 µM ([5]; dose 5 nM, 6 days, normalized to vehicle control, read-out: ErythII normalized cell count): 0.449%
activity at 0.025 µM ([5]; dose 25 nM, 6 days, normalized to vehicle control, read-out: ErythII normalized cell count): 0.0341%
activity at 0.1 µM ([5]; dose 100 nM, 6 days, normalized to vehicle control, read-out: ErythII normalized cell count): 0.0344%
activity at 0.5 µM ([5]; dose 500 nM, 6 days, normalized to vehicle control, read-out: ErythII normalized cell count): 0.0336%
activity at 2.5 µM ([5]; dose 2500 nM, 6 days, normalized to vehicle control, read-out: ErythII normalized cell count): 0.0256%
Emax ([5]; parameter from QSP model fitting, read-out: Emax_drug_ErythroidII): 1.59%
activity at 0.0002 µM ([6]; Homo sapiens, Monocyte, 144 h, dose 0.2 nM, 6 days, normalized to vehicle control, read-out: MonoPs normalized cell count): 110%
activity at 0.001 µM ([6]; Homo sapiens, Monocyte, 144 h, dose 1 nM, 6 days, normalized to vehicle control, read-out: MonoPs normalized cell count): 107%
activity at 0.005 µM ([6]; Homo sapiens, Monocyte, 144 h, dose 5 nM, 6 days, normalized to vehicle control, read-out: MonoPs normalized cell count): 7.72%
activity at 0.025 µM ([6]; Homo sapiens, Monocyte, 144 h, dose 25 nM, 6 days, normalized to vehicle control, read-out: MonoPs normalized cell count): 0.204%
activity at 0.1 µM ([6]; Homo sapiens, Monocyte, 144 h, dose 100 nM, 6 days, normalized to vehicle control, read-out: MonoPs normalized cell count): 0.162%
activity at 0.5 µM ([6]; Homo sapiens, Monocyte, 144 h, dose 500 nM, 6 days, normalized to vehicle control, read-out: MonoPs normalized cell count): 0.302%
activity at 2.5 µM ([6]; Homo sapiens, Monocyte, 144 h, dose 2500 nM, 6 days, normalized to vehicle control, read-out: MonoPs normalized cell count): 0.319%
Emax ([6]; Homo sapiens, Monocyte, 144 h, parameter from QSP model fitting, read-out: Emax_drug_MonoP): 146%
EmaxCK,MonoP [6, 8]: 0.459 day⁻¹
activity at 0.0002 µM (granulocytes (Gran-lin); Homo sapiens, 144 h, dose 0.2 nM, 6 days, normalized to vehicle control, read-out: Gran normalized cell count): 99.7%
activity at 0.001 µM (granulocytes (Gran-lin); Homo sapiens, 144 h, dose 1 nM, 6 days, normalized to vehicle control, read-out: Gran normalized cell count): 112%
activity at 0.005 µM (granulocytes (Gran-lin); Homo sapiens, 144 h, dose 5 nM, 6 days, normalized to vehicle control, read-out: Gran normalized cell count): 2.09%
activity at 0.025 µM (granulocytes (Gran-lin); Homo sapiens, 144 h, dose 25 nM, 6 days, normalized to vehicle control, read-out: Gran normalized cell count): 0.0343%
activity at 0.1 µM (granulocytes (Gran-lin); Homo sapiens, 144 h, dose 100 nM, 6 days, normalized to vehicle control, read-out: Gran normalized cell count): 0.0437%
activity at 0.5 µM (granulocytes (Gran-lin); Homo sapiens, 144 h, dose 500 nM, 6 days, normalized to vehicle control, read-out: Gran normalized cell count): 0.0563%
activity at 2.5 µM (granulocytes (Gran-lin); Homo sapiens, 144 h, dose 2500 nM, 6 days, normalized to vehicle control, read-out: Gran normalized cell count): 0.0425%
Emax (granulocytes (Gran-lin); Homo sapiens, 144 h, parameter from QSP model fitting, read-out: Emax_drug_Gran): 276%
EmaxCK,Gran (granulocytes (Gran-lin); [8]): 1.762 day⁻¹
